In test [1] the test system is A549. The experiment in a line: Anticancer activity against human A549 cells assessed as reduction in cell viability incubated for 48 hrs by MTT assay. To be noted: A549, 48 h. A general note: Tetrazolium assays rely on reduction of a dye to a coloured formazan, in cell work by metabolically active cells.
The target of test [2] is Vascular endothelial growth factor receptor 2 (Homo sapiens, UniProt P35968). The test is described as follows: Inhibition of human VEGFR2 in human A549 cells incubated for over night by ELISA method. The format is cell-based.
Sequence of Vascular endothelial growth factor receptor 2 (P35968 whole entry): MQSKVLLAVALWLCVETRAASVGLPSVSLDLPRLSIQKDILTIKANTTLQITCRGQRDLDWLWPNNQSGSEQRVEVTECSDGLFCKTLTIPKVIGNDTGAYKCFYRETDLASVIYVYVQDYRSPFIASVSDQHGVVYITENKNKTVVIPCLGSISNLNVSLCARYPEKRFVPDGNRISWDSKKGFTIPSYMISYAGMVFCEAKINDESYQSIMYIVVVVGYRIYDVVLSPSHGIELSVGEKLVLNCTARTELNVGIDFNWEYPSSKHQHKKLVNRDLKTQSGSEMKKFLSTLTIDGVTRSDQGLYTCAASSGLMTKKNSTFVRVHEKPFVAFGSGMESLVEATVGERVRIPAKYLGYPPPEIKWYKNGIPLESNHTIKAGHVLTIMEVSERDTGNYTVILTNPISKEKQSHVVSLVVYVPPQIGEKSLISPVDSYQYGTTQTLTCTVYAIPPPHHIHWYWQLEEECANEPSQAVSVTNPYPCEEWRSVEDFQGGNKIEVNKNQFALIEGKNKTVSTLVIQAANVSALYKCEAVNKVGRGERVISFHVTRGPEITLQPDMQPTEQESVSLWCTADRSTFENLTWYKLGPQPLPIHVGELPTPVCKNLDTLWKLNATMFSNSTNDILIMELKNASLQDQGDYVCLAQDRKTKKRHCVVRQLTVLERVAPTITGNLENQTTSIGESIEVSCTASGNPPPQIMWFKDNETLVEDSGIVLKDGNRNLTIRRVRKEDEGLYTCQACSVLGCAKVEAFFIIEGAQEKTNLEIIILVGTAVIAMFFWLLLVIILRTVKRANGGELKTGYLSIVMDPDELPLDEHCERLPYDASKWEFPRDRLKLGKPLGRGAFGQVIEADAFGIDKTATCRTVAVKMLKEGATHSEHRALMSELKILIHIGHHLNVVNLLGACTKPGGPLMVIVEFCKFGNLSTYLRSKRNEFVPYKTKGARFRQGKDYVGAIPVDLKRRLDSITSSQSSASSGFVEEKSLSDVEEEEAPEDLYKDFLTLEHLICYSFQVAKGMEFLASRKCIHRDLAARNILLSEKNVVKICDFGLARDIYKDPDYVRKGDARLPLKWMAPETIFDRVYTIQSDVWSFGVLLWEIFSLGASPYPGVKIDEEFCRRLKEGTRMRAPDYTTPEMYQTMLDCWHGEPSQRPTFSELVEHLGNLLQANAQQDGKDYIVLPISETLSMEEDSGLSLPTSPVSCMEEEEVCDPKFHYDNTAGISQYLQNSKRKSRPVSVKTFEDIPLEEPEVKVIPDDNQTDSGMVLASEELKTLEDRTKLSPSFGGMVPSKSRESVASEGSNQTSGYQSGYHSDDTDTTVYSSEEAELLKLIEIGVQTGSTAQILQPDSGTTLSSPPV
In test [3] the target is Receptor tyrosine-protein kinase erbB-2 (Homo sapiens, UniProt P04626). The test is described as follows: Inhibition of human HER2 in human A549 cells by ELISA method. The format is cell-based. (In general: An ELISA detects its analyte on a solid surface through an enzyme-linked reagent.)
Sequence of Receptor tyrosine-protein kinase erbB-2 (P04626 whole entry): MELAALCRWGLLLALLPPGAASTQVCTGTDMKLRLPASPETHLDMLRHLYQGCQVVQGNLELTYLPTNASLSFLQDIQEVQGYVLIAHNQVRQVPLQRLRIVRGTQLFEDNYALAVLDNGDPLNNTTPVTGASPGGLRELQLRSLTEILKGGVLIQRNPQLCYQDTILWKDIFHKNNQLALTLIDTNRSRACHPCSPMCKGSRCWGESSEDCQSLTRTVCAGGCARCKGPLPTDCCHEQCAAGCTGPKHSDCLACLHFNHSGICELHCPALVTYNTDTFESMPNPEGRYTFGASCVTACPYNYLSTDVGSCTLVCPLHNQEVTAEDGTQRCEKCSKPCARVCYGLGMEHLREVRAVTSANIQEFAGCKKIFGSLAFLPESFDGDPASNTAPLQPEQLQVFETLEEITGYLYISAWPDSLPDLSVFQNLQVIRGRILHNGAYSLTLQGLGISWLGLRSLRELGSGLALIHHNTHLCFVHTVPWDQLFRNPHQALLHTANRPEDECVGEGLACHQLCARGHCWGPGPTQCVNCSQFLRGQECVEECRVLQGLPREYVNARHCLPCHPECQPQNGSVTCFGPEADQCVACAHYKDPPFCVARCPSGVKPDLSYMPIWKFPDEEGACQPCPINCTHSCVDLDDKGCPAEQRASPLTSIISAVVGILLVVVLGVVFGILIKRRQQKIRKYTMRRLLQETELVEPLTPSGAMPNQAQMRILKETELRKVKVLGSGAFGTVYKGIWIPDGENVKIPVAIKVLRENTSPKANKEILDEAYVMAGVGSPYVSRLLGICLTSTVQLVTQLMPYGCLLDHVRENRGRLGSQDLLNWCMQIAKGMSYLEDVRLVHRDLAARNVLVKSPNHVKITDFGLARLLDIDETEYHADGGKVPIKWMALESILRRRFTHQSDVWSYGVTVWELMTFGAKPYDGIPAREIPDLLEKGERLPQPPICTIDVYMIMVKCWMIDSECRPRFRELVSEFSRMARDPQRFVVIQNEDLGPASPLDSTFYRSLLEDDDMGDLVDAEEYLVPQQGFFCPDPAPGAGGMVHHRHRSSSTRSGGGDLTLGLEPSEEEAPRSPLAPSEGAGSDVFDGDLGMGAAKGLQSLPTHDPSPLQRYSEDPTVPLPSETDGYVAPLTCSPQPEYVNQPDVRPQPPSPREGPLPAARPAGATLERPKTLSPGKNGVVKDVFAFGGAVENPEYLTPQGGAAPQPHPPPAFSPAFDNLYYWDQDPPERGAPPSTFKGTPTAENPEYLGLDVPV
In test [4] the target is Hepatocyte growth factor receptor (Homo sapiens, UniProt P08581). The experiment in a line: Inhibition of human c-MET incubated for 2 hrs by ELISA method.
Sequence of Hepatocyte growth factor receptor (P08581 whole entry): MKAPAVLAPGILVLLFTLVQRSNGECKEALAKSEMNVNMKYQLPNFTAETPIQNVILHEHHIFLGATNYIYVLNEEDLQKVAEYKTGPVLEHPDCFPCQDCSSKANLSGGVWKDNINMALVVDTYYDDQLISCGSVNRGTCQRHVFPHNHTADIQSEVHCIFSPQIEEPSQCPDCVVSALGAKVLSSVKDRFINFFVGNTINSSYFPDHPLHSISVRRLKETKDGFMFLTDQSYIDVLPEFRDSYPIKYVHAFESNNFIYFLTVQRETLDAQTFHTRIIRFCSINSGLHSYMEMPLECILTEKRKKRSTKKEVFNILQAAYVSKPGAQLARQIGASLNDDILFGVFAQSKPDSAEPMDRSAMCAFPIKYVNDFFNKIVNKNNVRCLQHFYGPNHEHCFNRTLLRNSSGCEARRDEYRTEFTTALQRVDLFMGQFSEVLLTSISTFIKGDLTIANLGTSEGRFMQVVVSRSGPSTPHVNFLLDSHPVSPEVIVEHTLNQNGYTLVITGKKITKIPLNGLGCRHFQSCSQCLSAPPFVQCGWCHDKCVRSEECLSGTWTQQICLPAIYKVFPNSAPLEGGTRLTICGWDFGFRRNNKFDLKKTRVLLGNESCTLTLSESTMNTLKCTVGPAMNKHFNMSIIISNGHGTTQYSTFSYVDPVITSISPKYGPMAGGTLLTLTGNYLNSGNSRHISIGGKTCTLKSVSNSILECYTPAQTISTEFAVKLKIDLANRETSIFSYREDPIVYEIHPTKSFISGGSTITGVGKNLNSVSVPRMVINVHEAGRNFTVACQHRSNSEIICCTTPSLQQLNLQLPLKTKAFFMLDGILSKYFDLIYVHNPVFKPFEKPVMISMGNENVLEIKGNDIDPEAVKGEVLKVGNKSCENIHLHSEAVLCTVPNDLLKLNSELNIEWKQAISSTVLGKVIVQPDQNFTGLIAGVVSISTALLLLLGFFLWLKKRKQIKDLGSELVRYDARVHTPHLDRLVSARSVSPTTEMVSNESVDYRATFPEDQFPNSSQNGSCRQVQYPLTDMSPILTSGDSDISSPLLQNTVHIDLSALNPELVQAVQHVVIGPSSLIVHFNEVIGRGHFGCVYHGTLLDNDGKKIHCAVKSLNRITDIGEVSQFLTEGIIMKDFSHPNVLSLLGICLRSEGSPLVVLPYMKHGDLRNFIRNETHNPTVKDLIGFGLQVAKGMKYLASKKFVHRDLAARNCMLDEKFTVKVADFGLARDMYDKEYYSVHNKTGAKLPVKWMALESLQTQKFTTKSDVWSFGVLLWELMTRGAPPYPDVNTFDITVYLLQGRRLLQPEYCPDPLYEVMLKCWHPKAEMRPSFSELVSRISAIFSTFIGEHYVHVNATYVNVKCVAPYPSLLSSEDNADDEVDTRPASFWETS
For test [5], the target named is Epidermal growth factor receptor (Homo sapiens, UniProt P00533). The experiment in a line: biochemical. It counts as cell-based, Sf9.
Test [6] addresses T1, Tyrosine-protein kinase Mer (Homo sapiens, UniProt Q12866).
T1 sequence (Q12866 whole entry): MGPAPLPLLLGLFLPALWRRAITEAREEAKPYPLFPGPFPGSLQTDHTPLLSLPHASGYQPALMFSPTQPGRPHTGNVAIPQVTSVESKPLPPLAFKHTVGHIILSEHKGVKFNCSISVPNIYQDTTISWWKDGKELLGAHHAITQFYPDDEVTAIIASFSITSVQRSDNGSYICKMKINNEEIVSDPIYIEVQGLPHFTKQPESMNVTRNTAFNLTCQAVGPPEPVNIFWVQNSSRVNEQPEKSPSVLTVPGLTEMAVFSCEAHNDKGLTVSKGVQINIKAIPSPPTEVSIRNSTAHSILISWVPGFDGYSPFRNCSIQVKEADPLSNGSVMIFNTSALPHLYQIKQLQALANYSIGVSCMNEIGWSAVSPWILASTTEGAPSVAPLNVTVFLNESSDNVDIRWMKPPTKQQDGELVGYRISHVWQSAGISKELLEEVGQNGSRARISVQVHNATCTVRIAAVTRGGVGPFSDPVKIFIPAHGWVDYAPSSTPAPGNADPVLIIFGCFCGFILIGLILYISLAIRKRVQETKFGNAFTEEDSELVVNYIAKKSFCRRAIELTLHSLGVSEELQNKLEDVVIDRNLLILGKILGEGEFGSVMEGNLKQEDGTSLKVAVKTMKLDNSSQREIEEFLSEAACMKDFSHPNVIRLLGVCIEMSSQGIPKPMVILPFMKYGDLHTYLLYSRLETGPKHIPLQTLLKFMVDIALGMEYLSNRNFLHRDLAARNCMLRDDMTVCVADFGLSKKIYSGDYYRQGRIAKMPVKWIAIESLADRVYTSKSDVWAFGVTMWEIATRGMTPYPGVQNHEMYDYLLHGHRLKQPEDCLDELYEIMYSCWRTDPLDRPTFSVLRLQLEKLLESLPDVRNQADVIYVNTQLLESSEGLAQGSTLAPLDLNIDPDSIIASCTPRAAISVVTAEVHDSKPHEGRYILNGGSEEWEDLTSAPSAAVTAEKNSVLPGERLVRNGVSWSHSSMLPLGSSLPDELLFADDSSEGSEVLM
The test is described as follows: Inhibition of human MER incubated for 90 mins by ELISA method.

For test [7], the system named is PANC-1. The experiment in a line: Anticancer activity against human PANC1 assessed as reduction in cell viability at 100 uM incubated for 48 hrs by MTT assay relative to control. It counts as functional.
The subject of test [8] is OVCAR-3. The experiment in a line: Anticancer activity against human OVCAR3 assessed as reduction in cell viability at 100 uM incubated for 48 hrs by MTT assay relative to control. It counts as functional.
Test [9] has as its system HT-29. The experiment in a line: Anticancer activity against human HT-29 assessed as reduction in cell viability at 100 uM incubated for 48 hrs by MTT assay relative to control. It counts as functional.
Test [10] deals with 786-0. The test is described as follows: Anticancer activity against human 786-O assessed as reduction in cell viability at 100 uM incubated for 48 hrs by MTT assay relative to control. The format is functional.
Test [11] relates to A549. The test is described as follows: Induction of apoptosis in human A549 cells assessed as total apoptotic cells at 2 uM after 24 hrs by Annexin V-FITC/propidium iodide double staining based flow cytometry relative to control. The format is functional. On the technique in general: In flow cytometry, cells or beads pass a laser one at a time.
The test system of test [12] is A549. The test is described as follows: Induction of apoptosis in human A549 cells assessed as measuring caspase-3 levels after 2 hrs by sandwich ELISA method (reference value: 57.22 pg/ml). It counts as functional.
In test [13] the test system is A549. The test is described as follows: Induction of apoptosis in human A549 cells assessed as measuring caspase-3 levels after 2 hrs by sandwich ELISA method relative to control. The format is functional.
Test [14] deals with A549. The test is described as follows: Induction of apoptosis in human A549 cells assessed as reduction in MCL-1 protein level after 2 hrs by sandwich ELISA method. It counts as functional, cell-based. To be noted: A549, 2 h.
The test system of test [15] is A549. The test is described as follows: Cell cycle arrest in human A549 cells assessed as accumulation at G0/G1 phase at 2 uM after 24 hrs by propidium iodide staining-based flow cytometric method (reference value: 65.63%). It counts as functional.
Test [16] has as its system A549. The experiment in a line: Cell cycle arrest in human A549 cells assessed as accumulation at S phase at 2 uM after 24 hrs by propidium iodide staining-based flow cytometric method (reference value: 26.79%). The format is functional.
The test system of test [17] is A549. The experiment in a line: Cell cycle arrest in human A549 cells assessed as accumulation at G2/M phase at 2 uM after 24 hrs by propidium iodide staining-based flow cytometric method (reference value: 7.22%). It counts as functional.
Test [18] has as its system A549. The experiment in a line: Cell cycle arrest in human A549 cells assessed as accumulation at pre-G1 phase at 2 uM after […] by propidium iodide staining-based flow cytometric method (reference value: 0.36%). It counts as functional.
In test [19] the test system is A549. The test is described as follows: Induction of apoptosis in human A549 cells assessed as viable cells at 2 uM after 24 hrs by Annexin V-FITC/propidium iodide double staining based flow cytometry (reference value: 97.87%). It counts as functional. As to conditions: A549, 24 h, read-out: Activity.
The test system of test [20] is A549. The experiment in a line: Induction of apoptosis in human A549 cells assessed as early apoptotic cells at 2 uM after 24 hrs by Annexin V-FITC/propidium iodide double staining based flow cytometry (reference value: […]). The format is functional.
For test [21], the system named is A549. The experiment in a line: Induction of apoptosis in human A549 cells assessed as late apoptotic cells at 2 uM after 24 hrs by Annexin V-FITC/propidium iodide double staining based flow cytometry (reference value: 0.11%). The format is functional.
Test [22] has as its system A549. The experiment in a line: Induction of apoptosis in human A549 cells assessed as necrotic cells at 2 uM after 24 hrs by Annexin V-FITC/propidium iodide double staining based flow cytometry (reference value: 0.1%). It counts as functional.
Test [23] has as its system PANC-1. The test is described as follows: Anticancer activity against human PANC1 assessed as reduction in cell viability incubated for 48 hrs by MTT assay. As to conditions: PANC-1, 48 h.
For test [24], the system named is OVCAR-3. The experiment in a line: Anticancer activity against human OVCAR3 assessed as reduction in cell viability incubated for 48 hrs by MTT assay. To be noted: OVCAR-3, 48 h.
For test [25], the system named is HT-29. The experiment in a line: Anticancer activity against human HT-29 assessed as reduction in cell viability incubated for 48 hrs by MTT assay. To be noted: HT-29, 48 h.

Results on 24 compounds are retold here after ChEMBL document CHEMBL4433204, “Design, synthesis and docking study of novel picolinamide derivatives as anticancer agents and VEGFR-2 inhibitors” (Eur J Med Chem, 2019).

Molecules are shown by their SMILES. The source made the active and inactive calls. The calls are words filed in the database; no cut-off is given here. Some results are limits rather than exact numbers.

As usually defined, the IC50 is the concentration that gives 50% inhibition. `Cc1ccc(NC(=O)Nc2cccc(NC(=O)c3ccccn3)c2)cc1`: the IC50 in [1] was 20 nM.
Still for that read-out and setting: to `O=C(Nc1ccc(Cl)cc1)Nc1cccc(NC(=O)c2ccccn2)c1` belongs 3620 nM.
As to `O=C(Nc1cccc(NC(=O)c2ccccn2)c1)NC1CCCCC1`, the IC50 in test [1] was 6260 nM; in test [2], 87 nM; in test [3] it was 64 nM; in test [4] it was 6220 nM; in [5], 147 nM; in test [6], 2630 nM. In addition, the Activity result in test [7], in test [8], in test [9] and in test [10] was “<=50%” each time.
`O=C(CCSC(=S)N1CCOCC1)Nc1cccc(NC(=O)c2ccccn2)c1`: in test [1], the IC50 was 2420 nM.
The same measure, in the same setting: to `CN1CCN(C(=S)SCC(=O)Nc2cccc(NC(=O)c3ccccn3)c2)CC1` belongs 1340 nM; to `O=C(CSC(=S)N1CCN(c2ncccn2)CC1)Nc1cccc(NC(=O)c2ccccn2)c1`, 40 nM.
On the same count and under the same terms, the value for `O=C(CSC(=S)N1CCN(c2ccccc2)CC1)Nc1cccc(NC(=O)c2ccccn2)c1` was 530 nM.
On the same count and under the same terms, to `O=C(CCSC(=S)N1CCCCC1)Nc1cccc(NC(=O)c2ccccn2)c1` belongs 4120 nM.
As to `O=C(CSC(=S)N1CCCCC1)Nc1cccc(NC(=O)c2ccccn2)c1`, the “fold change (FC)” value in test [11] is 49; in [13], 8.833. The IC50 is 320 nM in test [1]; 27 nM in [2]; 104 nM in test [3]; 8300 nM in test [4]; 84 nM in test [5]; 3950 nM in test [6]. Also, the IC50 in test [14] was 6700 nM. The Activity in test [12] came out at 505.4 pg/mL; in test [15] it was 52.92%; in [16] it was 16.66%; in test [17], 17.36%; in test [18], 13.06%; in test [20], 5.01%. The Activity in [21] came out at 7.72%; in [22], 1.33%. Also, the outcome in [7] and in [9] was Active. In addition, in test [19], the viability at 2 µM amounted to 85.2%.
For the compound `O=C(CCSC(=S)N1CCN(c2ncccn2)CC1)Nc1cccc(NC(=O)c2ccccn2)c1`, the IC50 in [1] is 460 nM.
The same measure, in the same setting: to `C=CCN1CCN(C(=S)SCC(=O)Nc2cccc(NC(=O)c3ccccn3)c2)CC1` belongs 210 nM; to `O=C(Nc1cccc(NC(=O)c2ccccn2)c1)Nc1ccc2ccccc2c1`, 240 nM.
Consider `CCN1CCN(C(=S)SCC(=O)Nc2cccc(NC(=O)c3ccccn3)c2)CC1`, for which the IC50 in test [1] turned out to be 3720 nM.
The same measure, in the same setting: to `CC(C)(C)OC(=O)N1CCN(C(=S)SCC(=O)Nc2cccc(NC(=O)c3ccccn3)c2)CC1` belongs 180 nM.
Regarding `O=C(Nc1cccc(NC(=S)Nc2ccc([N+](=O)[O-])cc2)c1)c1ccccn1`, in test [1], the IC50 came to 450 nM.
In the case of `O=C(CCSC(=S)N1CCN(c2ccccc2)CC1)Nc1cccc(NC(=O)c2ccccn2)c1`, the concentration for half-maximal inhibition (IC50) in test [1] turned out to be 31700 nM; in [2] it was 94 nM; in test [3], 54 nM; in test [4] it was 17900 nM; in test [5] it was 70 nM; in [6] it was 3120 nM. For the same compound, the outcome in test [7] and in test [9] was Active.
Take `O=C(Nc1ccccc1)Nc1cccc(NC(=O)c2ccccn2)c1`: the IC50 in test [1] stood at 5190 nM.
Regarding `O=C(NCc1ccccc1)Nc1cccc(NC(=O)c2ccccn2)c1`, the IC50 in [1] was determined as 2990 nM.
Take `O=C(Nc1ccc([N+](=O)[O-])cc1)Nc1cccc(NC(=O)c2ccccn2)c1`: the IC50 in test [1] was determined as 320 nM.
Regarding `O=C(CSC(=S)N1CCN(C2CCCCC2)CC1)Nc1cccc(NC(=O)c2ccccn2)c1`, the IC50 in test [1] was 390 nM.
Consider `CNC(=O)c1cc(Oc2ccc(NC(=O)Nc3ccc(Cl)c(C(F)(F)F)c3)cc2)ccn1` [SORAFENIB], for which the IC50 came out at 750 nM in test [1]; 5530 nM in [14]; 20000 nM in [23]; 12000 nM in test [24]; 10000 nM in test [25]. Besides, the Activity stood at 515 pg/mL in test [12]; 45.13% in test [15]; 15.51% in test [16]; 23.14% in [17]; 16.22% in [18]; 6.18% in test [20]. The Activity in test [21] was 8.62%; in test [22], 1.42%. The viability at 2 µM in test [19] came out at 82%.
With `O=C(Nc1cccc(NC(=S)Nc2ccccc2)c1)c1ccccn1`, the IC50 in test [1] was 4400 nM.
Same read-out and setting: to `O=C(CSC(=S)N1CCOCC1)Nc1cccc(NC(=O)c2ccccn2)c1` belongs 50 nM; to `O=C(Nc1cccc(Cl)c1)Nc1cccc(NC(=O)c2ccccn2)c1`, 2850 nM.
